Results taken from patent publication US9695155B2, “Herbicidal substituted pyrimidinyloxy benzene compounds” (E. I. DU PONT DE NEMOURS AND COMPANY, priority 2013, dated 2017).

What was measured:
bluegrass [1] = test: Test D preemergence; format: in vivo, Poa annua; conditions: Poa annua, pre-emergence, scale 0-100, read-out: Plant response rating, Bluegrass
Text: (§1) Seeds of plant species selected from bluegrass (annual bluegrass, Poa annua), blackgrass (Alopecurus myosuroides), canarygrass (littleseed canarygrass, Phalaris minor), chickweed (common chickweed, Stellaria media), galium (catchweed bedstraw, Galium aparine), bromegrass, downy (downy bromegrass, Bromus tectorum), field poppy (Papaver rhoeas), field violet (Viola arvensis), green foxtail (Setaria viridis), deadnettle (henbit deadnettle, Lamium amplexicaule), Italian ryegrass (Lolium multiflorum), kochia (Kochia scoparia), lambsquarters (Chenopodium album), oilseed rape (Brassica napus), pigweed (Amaranthus retroflexus), chamomile (scentless chamomile, Matricaria inodora), Russian thistle (Salsola kali), speedwell (bird's-eye speedwell, Veronica persica), spring barley (Hordeum vulgare), spring wheat (Triticum aestivum), wild buckwheat (Polygonum convolvulus), wild mustard (Sinapis arvensis), wild oat (Avena fatua), wild radish (Raphanus raphanistrum), windgrass (Apera spica-venti), winter barley (Hordeum vulgare), and winter wheat (Triticum aestivum) were planted into a silt loam soil and treated preemergence with test chemicals formulated in a non-phytotoxic solvent mixture which included a surfactant.
(§2) At the same time, these species were planted in pots containing Redi-Earth® planting medium (Scotts Company, 14111 Scottslawn Road, Marysville, Ohio 43041) comprising spaghnum peat moss, vermiculite, wetting agent and starter nutrients and treated with postemergence applications of the test chemicals formulated in the same manner. Plants ranged in height from 2 to 18 cm (1- to 4-leaf stage). Treated plants and controls were maintained in a controlled growth environment for 7 to 21 days after which time all species were compared to controls and visually evaluated. Plant response ratings, summarized in Table D, are based on a scale of 0 to 100 where 0 is no effect and 100 is complete control. A dash (-) response means no test result.

kochia = test: Test D preemergence; format: in vivo, Kochia scoparia; conditions: Bassia scoparia, pre-emergence, scale 0-100, read-out: Plant response rating, Kochia
Text: as §1, §2

bluegrass [2] = test: Test D postemergence; format: in vivo, Poa annua; conditions: Poa annua, post-emergence, Postemergence, scale 0 to 100 (0 no effect, 100 complete control), read-out: Plant response rating, Bluegrass
Text: as §1, §2

blackgrass = test: Test D postemergence; format: in vivo, Alopecurus myosuroides; conditions: Alopecurus myosuroides, post-emergence, Postemergence, scale 0 to 100 (0 no effect, 100 complete control), read-out: Plant response rating, Blackgrass
Text: as §1, §2

bromegrass, downy = test: Test D postemergence; format: in vivo, Bromus tectorum; conditions: Bromus tectorum, post-emergence, Postemergence, scale 0 to 100 (0 no effect, 100 complete control), read-out: Plant response rating, Bromegrass, Downy
Text: as §1, §2

wild oat = test: Test D postemergence; format: in vivo, Avena fatua; conditions: Avena fatua, post-emergence, scale 0 to 100 (0 no effect, 100 complete control), read-out: Plant response rating, Oat, Wild
Text: as §1, §2

wild radish = test: Test D postemergence; format: in vivo, Raphanus raphanistrum; conditions: Raphanus raphanistrum, post-emergence, scale 0 to 100 (0 no effect, 100 complete control), read-out: Plant response rating, Radish, Wild
Text: as §1, §2

large (Lg) crabgrass = test: Test F preemergence; format: in vivo, Digitaria sanguinalis; conditions: 21 days, scale 0 to 100
Text: (§3) Seeds of plant species selected from bermudagrass (Cynodon dactylon), surinam grass (Brachiaria decumbens), large (Lg) crabgrass (Digitaria sanguinalis), crabgrass, naked (naked crabgrass, Digitaria nuda), foxtail, green (green foxtail, Setaria viridis), johnsongrass (Sorghum halepense), kochia (Kochia scoparia), morningglory (pitted morningglory, Ipomoea lacunosa), nutsedge, purple (purple nutsedge, Cyperus rotundus), ragweed (common ragweed, Ambrosia elatior), mustard, black (black mustard, Brassica nigra), guineagrass (Panicum maximum), dallisgrass (Paspalum dilatatum), barnyardgrass (Echinochloa crus-galli), sandbur (southern sandbur, Cenchrus echinatus), sowthistle (common sowthistle, Sonchus oleraceous), Italian ryegrass (Lolium multiflorum), signalgrass (broadleaf signalgrass, Brachiaria platyphylla), dayflower (Virginia (VA) dayflower, Commelina virginica), bluegrass (annual bluegrass, Poa annua), quackgrass (Elytrigia repens), mallow (common mallow, Malva sylvestris), buckwheat, wild (wild buckwheat, Polygonum convolvulus), leafy spurge (Euphorbia esula), chickweed (common chickweed, Stellaria media), wild poinsettia (Euphorbia heterophylla), and pigweed (Amaranthus retroflexus) were planted into a blend of loam soil and sand and treated preemergence with test chemicals formulated in a non-phytotoxic solvent mixture which included a surfactant.
(§4) Treated plants and controls were maintained in a greenhouse for 21 days, after which time all species were compared to controls and visually evaluated. Plant response ratings, summarized in Table F, are based on a scale of 0 to 100 where 0 is no effect and 100 is complete control. A dash (-) response means no test result.

[3] = tested on: morningglory (pitted morningglory); test: Test F preemergence; format: in vivo, Ipomoea lacunosa; conditions: 21 days, scale 0 to 100
Text: as §3, §4

N#Cc1cccc(Oc2ncc(Cl)cn2)c1-n1cc(Br)cn1 [Compound 52, 2-(4-bromo-1H-pyrazol-1-yl)-3-[(5-chloro-2-pyrimidinyl)oxy]benzonitrile]
pest or weed control at 31 g/ha (bluegrass [1]; 31 g ai/ha): 0% | pest or weed control at 62 g/ha (bluegrass [1]; 62 g ai/ha): 0% | pest or weed control at 125 g/ha (bluegrass [1]; 125 g ai/ha): 10% | pest or weed control at 250 g/ha (bluegrass [1]; 250 g ai/ha): 60% | pest or weed control at 31 g/ha (kochia; 31 g ai/ha): 95% | pest or weed control at 62 g/ha (kochia; 62 g ai/ha): 95% | pest or weed control at 125 g/ha (kochia; 125 g ai/ha): 95% | pest or weed control at 250 g/ha (kochia; 250 g ai/ha): 95% | pest or weed control at 31 g/ha (bluegrass [2]; 31 g ai/ha): 15% | pest or weed control at 62 g/ha (bluegrass [2]; 62 g ai/ha): 20% | pest or weed control at 125 g/ha (bluegrass [2]; 125 g ai/ha): 15% | pest or weed control at 250 g/ha (bluegrass [2]; 250 g ai/ha): 25% | pest or weed control at 62 g/ha (blackgrass; 62 g ai/ha): 30% | pest or weed control at 31 g/ha (blackgrass; 31 g ai/ha): 30% | pest or weed control at 125 g/ha (blackgrass; 125 g ai/ha): 40% | pest or weed control at 250 g/ha (blackgrass; 250 g ai/ha): 65% | pest or weed control at 31 g/ha (bromegrass, downy; 31 g ai/ha): 15% | pest or weed control at 62 g/ha (bromegrass, downy; 62 g ai/ha): 20% | pest or weed control at 125 g/ha (bromegrass, downy; 125 g ai/ha): 20% | pest or weed control at 250 g/ha (bromegrass, downy; 250 g ai/ha): 25% | pest or weed control at 31 g/ha (wild oat; 31 g ai/ha): 20% | pest or weed control at 62 g/ha (wild oat; 62 g ai/ha): 35% | pest or weed control at 125 g/ha (wild oat; 125 g ai/ha): 30% | pest or weed control at 250 g/ha (wild oat; 250 g ai/ha): 35% | pest or weed control at 31 g/ha (wild radish; 31 g ai/ha): 65% | pest or weed control at 62 g/ha (wild radish; 62 g ai/ha): 70% | pest or weed control at 125 g/ha (wild radish; 125 g ai/ha): 80% | pest or weed control at 250 g/ha (wild radish; 250 g ai/ha): 90%

N#Cc1cccc(Oc2ncc(F)cn2)c1-n1cc(C(F)(F)F)cn1 [Compound 79, 3-[(5-fluoro-2-pyrimidinyl)oxy]-2-[4-(trifluoromethyl)-1H-pyrazol-1-yl]benzonitrile]
Plant response rating, Crabgrass, Large (large (Lg) crabgrass; 16 g ai/ha): 98 | Plant response rating, Crabgrass, Large (large (Lg) crabgrass; 31 g ai/ha): 100 | Plant response rating, Crabgrass, Large (large (Lg) crabgrass; 62 g ai/ha): 100 | Plant response rating, Crabgrass, Large (large (Lg) crabgrass; 125 g ai/ha): 100 | Plant response rating, Crabgrass, Large (large (Lg) crabgrass; 250 g ai/ha): 100 | Plant response rating, Morningglory ([3]; 16 g ai/ha): 98 | Plant response rating, Morningglory ([3]; 31 g ai/ha): 100 | Plant response rating, Morningglory ([3]; 62 g ai/ha): 100 | Plant response rating, Morningglory ([3]; 125 g ai/ha): 100 | Plant response rating, Morningglory ([3]; 250 g ai/ha): 100

N#Cc1cccc(Oc2ncc(Cl)cn2)c1-n1cc(OC(F)F)cn1 [Compound 97]
Plant response rating, Crabgrass, Large (large (Lg) crabgrass; 16 g ai/ha): 98 | Plant response rating, Crabgrass, Large (large (Lg) crabgrass; 31 g ai/ha): 100 | Plant response rating, Crabgrass, Large (large (Lg) crabgrass; 62 g ai/ha): 100 | Plant response rating, Crabgrass, Large (large (Lg) crabgrass; 125 g ai/ha): 100 | Plant response rating, Crabgrass, Large (large (Lg) crabgrass; 250 g ai/ha): 100 | Plant response rating, Morningglory ([3]; 16 g ai/ha): 10 | Plant response rating, Morningglory ([3]; 31 g ai/ha): 60 | Plant response rating, Morningglory ([3]; 62 g ai/ha): 90 | Plant response rating, Morningglory ([3]; 125 g ai/ha): 98 | Plant response rating, Morningglory ([3]; 250 g ai/ha): 100
